Assay [1] relates to woodchuck hepatitis virus (WHV). Nature of the assay: Woodchuck model of chronic HBV infection (WHV DNA in serum). In kind it is in vivo, woodchucks (Marmota monax). On the procedure:
The efficacy of L-dA, L-dT and L-dC against hepadnavirus infection in woodchucks (Marmota monax) chronically infected with woodchuck hepatitis virus (WHV) was determined. This animal model of HBV infection is widely accepted and has proven to be useful for the evaluation of antiviral agents directed against HBV. Experimental groups (n=3 animals/drug group, n=4 animals/control) [table] Drugs were administered by oral gavage once daily, and blood samples taken on days 0, 1, 3, 7, 14, 21, 28, and on post-treatment days +1, +3, +7, +14, +28 and +56. Assessment of the activity and toxicity was based on the reduction of WHV DNA in serum: dot-blot, quantative PCR.

For assay [2], the target named is T1, human DNA polymerase γ (Homo sapiens, UniProt P54098).
T1 sequence (P54098 1-1239): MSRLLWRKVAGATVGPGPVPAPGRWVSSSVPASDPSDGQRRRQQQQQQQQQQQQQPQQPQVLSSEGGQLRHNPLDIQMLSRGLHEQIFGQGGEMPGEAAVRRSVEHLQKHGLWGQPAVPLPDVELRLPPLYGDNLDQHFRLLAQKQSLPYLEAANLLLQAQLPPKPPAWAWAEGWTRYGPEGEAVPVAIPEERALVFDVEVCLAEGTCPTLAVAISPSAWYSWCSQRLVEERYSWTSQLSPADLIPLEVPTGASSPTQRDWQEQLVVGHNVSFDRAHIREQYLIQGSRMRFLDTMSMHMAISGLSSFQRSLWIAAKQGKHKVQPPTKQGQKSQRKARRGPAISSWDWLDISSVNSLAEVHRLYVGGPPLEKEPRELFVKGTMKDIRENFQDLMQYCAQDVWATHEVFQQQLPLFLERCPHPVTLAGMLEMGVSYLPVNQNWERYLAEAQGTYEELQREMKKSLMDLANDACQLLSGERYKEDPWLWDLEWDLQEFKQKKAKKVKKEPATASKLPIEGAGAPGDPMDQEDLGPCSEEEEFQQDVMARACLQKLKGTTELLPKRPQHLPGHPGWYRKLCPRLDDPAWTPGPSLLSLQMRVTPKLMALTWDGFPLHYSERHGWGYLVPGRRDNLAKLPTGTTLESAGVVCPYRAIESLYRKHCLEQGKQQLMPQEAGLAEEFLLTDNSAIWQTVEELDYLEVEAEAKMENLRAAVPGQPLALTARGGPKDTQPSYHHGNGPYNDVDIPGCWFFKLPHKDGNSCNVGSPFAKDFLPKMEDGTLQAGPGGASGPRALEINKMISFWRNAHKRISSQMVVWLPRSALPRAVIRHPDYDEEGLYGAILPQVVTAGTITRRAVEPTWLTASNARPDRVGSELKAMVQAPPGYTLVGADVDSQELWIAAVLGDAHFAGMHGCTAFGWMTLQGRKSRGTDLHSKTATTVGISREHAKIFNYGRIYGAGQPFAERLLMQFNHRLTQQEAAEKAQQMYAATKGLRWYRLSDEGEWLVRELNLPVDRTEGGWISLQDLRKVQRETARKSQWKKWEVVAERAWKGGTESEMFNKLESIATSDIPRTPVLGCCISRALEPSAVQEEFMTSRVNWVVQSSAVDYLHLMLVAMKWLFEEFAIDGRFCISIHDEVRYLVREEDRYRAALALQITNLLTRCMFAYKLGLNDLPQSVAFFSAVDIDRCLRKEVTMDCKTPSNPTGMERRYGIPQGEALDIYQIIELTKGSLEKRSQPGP
Put plainly: Inhibition of human DNA polymerase γ (Dixon plot, calf thymus activated DNA, dATP). In kind it is biochemical. Conditions: calf thymus activated DNA as template-primer, dATP as substrate; read-out: DNA pol γ Ki.

For assay [3], the target named is woodchuck hepatitis virus (WHV) DNA polymerase (Woodchuck hepatitis B virus, UniProt P03160). Put plainly: Inhibition of woodchuck hepatitis virus (WHV) DNA polymerase by triphosphates.
Sequence of woodchuck hepatitis virus (WHV) DNA polymerase (P03160 whole entry): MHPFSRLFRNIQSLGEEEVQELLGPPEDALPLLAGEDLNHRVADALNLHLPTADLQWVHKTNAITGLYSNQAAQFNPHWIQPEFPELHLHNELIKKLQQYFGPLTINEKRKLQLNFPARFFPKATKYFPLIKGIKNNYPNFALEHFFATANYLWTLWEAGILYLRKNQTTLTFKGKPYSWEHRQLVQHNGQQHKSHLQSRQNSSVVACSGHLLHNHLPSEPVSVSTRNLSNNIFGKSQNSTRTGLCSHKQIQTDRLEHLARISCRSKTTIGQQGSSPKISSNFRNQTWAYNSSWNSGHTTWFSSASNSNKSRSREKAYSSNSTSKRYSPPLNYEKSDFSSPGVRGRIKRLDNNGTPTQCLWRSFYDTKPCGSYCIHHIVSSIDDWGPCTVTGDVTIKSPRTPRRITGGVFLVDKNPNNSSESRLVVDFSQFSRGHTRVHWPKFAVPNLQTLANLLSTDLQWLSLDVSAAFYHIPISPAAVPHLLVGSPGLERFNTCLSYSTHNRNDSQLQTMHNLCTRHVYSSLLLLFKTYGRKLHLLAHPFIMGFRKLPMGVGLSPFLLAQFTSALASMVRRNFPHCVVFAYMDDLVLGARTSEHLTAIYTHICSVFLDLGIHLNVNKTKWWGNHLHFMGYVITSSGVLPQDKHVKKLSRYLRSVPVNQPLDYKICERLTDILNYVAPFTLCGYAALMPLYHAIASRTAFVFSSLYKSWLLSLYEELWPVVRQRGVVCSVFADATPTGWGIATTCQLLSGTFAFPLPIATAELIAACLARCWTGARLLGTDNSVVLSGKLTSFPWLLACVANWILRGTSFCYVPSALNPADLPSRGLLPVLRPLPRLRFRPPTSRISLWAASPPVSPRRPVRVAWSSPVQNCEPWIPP
Assay [4] deals with human DNA polymerase β (Homo sapiens, UniProt P06746). Nature of the assay: Inhibition of human DNA polymerase β (Dixon plot, calf thymus activated DNA, dATP). The assay is classed as biochemical. Particulars: calf thymus activated DNA as template-primer, dATP as substrate; read-out: DNA pol β Ki.
The target in assay [5] is T2, human DNA polymerase α (Homo sapiens, UniProt P09884).
T2 sequence (P09884 1-1462): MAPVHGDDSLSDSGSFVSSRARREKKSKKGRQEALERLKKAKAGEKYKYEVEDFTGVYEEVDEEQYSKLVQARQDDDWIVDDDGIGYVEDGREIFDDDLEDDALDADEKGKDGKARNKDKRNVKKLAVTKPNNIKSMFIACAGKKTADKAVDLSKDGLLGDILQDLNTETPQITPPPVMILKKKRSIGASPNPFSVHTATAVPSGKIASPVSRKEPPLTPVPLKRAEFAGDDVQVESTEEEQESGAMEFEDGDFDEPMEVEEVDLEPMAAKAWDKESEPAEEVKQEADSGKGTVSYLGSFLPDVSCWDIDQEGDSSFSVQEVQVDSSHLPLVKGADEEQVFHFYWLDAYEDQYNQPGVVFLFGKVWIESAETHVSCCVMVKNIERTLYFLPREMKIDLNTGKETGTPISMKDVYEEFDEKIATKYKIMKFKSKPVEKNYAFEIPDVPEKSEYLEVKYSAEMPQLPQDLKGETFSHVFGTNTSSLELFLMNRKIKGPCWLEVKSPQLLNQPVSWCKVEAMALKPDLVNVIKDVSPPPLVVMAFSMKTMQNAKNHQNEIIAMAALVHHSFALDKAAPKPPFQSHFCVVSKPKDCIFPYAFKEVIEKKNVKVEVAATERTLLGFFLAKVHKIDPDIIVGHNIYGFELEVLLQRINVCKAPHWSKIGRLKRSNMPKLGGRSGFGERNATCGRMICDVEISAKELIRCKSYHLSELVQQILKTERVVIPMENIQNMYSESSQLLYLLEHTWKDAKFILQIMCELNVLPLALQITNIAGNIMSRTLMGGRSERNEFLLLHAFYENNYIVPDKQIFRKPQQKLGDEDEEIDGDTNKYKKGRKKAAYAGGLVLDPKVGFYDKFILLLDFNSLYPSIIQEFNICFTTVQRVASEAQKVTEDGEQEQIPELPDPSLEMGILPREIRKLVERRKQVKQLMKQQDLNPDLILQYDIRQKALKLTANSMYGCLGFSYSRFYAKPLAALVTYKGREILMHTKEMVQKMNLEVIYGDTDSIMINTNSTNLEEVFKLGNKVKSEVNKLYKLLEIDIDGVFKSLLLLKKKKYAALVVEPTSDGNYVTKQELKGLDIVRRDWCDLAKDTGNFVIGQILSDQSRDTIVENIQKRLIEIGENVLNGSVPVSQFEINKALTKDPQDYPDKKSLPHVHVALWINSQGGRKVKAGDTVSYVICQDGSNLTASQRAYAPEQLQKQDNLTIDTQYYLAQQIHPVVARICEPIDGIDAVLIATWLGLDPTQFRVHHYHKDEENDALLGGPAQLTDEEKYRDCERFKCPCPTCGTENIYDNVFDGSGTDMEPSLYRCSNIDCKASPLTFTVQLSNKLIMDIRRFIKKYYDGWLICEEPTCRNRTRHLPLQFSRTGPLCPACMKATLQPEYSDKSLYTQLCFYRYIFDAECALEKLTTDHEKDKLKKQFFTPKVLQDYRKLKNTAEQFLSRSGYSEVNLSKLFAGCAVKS
Nature of the assay: Inhibition of human DNA polymerase α (Dixon plot, calf thymus activated DNA, dATP). In kind it is biochemical. Particulars: calf thymus activated DNA as template-primer, dATP as substrate; read-out: DNA pol α Ki.

Some results are limits rather than exact numbers.

This note sets out measurements from patent US6566344B1, “β-L-2′-deoxy-nucleosides for the treatment of hepatitis B” (priority 1998, dated 2003).

Broadly, the Ki is a dissociation constant, usually derived from enzyme kinetics or from competition with a known ligand. In general, IC50 refers to the concentration that inhibits the measured activity by half. A high value points to weaker potency in that assay.

Take `Nc1ccn([C@@H]2C[C@@H](O)[C@H](CO)O2)c(=O)n1` [β-L-dC, 2′-Deoxy-β-L-cytidine]: in assay [1], the “activity compared with 3TC (lamivudine)” value was “more active than 3TC (lamivudine)” and the “viral load reduced to (level)” value is recorded as “nearly undetectable”.
The corresponding values for `Nc1ncnc2c1ncn2[C@@H]1C[C@@H](O)[C@H](CO)O1` [β-L-dA, 2′-Deoxy-β-L-adenosine] are “more active than 3TC (lamivudine)” and “nearly undetectable”.
Take `Cc1cn([C@@H]2C[C@@H](O)[C@H](CO)O2)c(=O)[nH]c1=O` [β-L-dT, 2′-Deoxy-β-L-Thymidine]: in assay [1], the “activity compared with 3TC (lamivudine)” value was “more active than 3TC (lamivudine)” and the “viral load reduced to (level)” value is listed as “undetectable”. The “viral rebound after withdrawal” value in assay [1] (post-treatment) is recorded as “not detected for at least two weeks”.
As for `Cc1cn([C@@H]2C[C@@H](O)[C@H](COP(=O)(O)OP(=O)(O)OP(=O)(O)O)O2)c(=O)[nH]c1=O` [β-L-dT-TP], the Ki in assay [2], in assay [4] and in assay [5] was > 100 µM in each case. The compound also returned an IC50 in assay [3] of 0.34 µM.
For the compound `Nc1ccn([C@@H]2C[C@@H](O)[C@H](COP(=O)(O)OP(=O)(O)OP(=O)(O)O)O2)c(=O)n1` [β-L-dC-TP], the inhibitory constant (Ki) in assay [2], in assay [4] and in assay [5] was > 100 µM throughout. In assay [3], the IC50 was 2 µM.
As for `O=c1ccn([C@@H]2C[C@@H](O)[C@H](COP(=O)(O)OP(=O)(O)OP(=O)(O)O)O2)c(=O)[nH]1` [β-L-dU-TP], the Ki in assay [2], in assay [4] and in assay [5] was > 100 µM throughout. The compound also gave an IC50 in assay [3] of 8 µM.
On to `Nc1ncnc2c1ncn2[C@@H]1C[C@@H](O)[C@H](COP(=O)(O)OP(=O)(O)OP(=O)(O)O)O1` [β-L-dA-TP], for which it took 2.3 µM to reach half-maximal inhibition in assay [3] (IC50). In addition, the inhibitory constant (Ki) in assay [4] and in assay [5] was > 100 µM in each case.
